Experimental data reported in patent US12359238B2 (priority 2017, dated 2025).

Tested on: all wired variants (GDH-S247PDAz, FGM-S247PDAz, FGM-T558PDAz, FGM-S247PCA)
Settings: read-out: KM^app of all samples (electrochemical); glucose; range over all wired variants; 300 mV vs. Ag/AgCl

OC[C@H]1OC(O)[C@H](O)[C@@H](O)[C@@H]1O (stereo partly shown) [glucose]
Km: 1550 to 1890 µM
